Patent US9662347B2, “Method for inhibiting the induction of cell death by inhibiting the synthesis or secretion of age-albumin in cells of the mononuclear phagocyte system” (Gachon University of Industry-Academic Cooperation …, priority 2010, dated 2017)

Legend:
[1] = test system: α-synuclein, TNF-α and AGE-albumin in human microglial cells; type: cell-based; conditions: for expression level of α-synuclein or TNF-α in human microglial cells: PCR and immunoblotting; for expression level of AGE-albumin: irrespective of rotenone treatment
Description: Human microglial cells were cultured at 37° C. in DMEM (Gibco, 10% FBS (Gibco), 0.1% gentamicin (Gibco), a high concentration of glucose) at 37° C. in a 5% CO2 incubator. Then, the microglial cells were exposed to rotenone (Sigma, 1 nM), a causative agent of Parkinson's disease, for 10 days or to 6-hydroxydopamine (6-OHDA) for 24 hrs to prepare a cell model of Parkinson's disease.
α-Synuclein or TNF-α is present at a high level in the brain tissue of Parkinson's disease patients.

[2] = test system: AGE-albumin, RAGE, and Bax in mouse brain tissues; experiment: Rotenone mouse model, fluoroimmunostaining of AGE-albumin, RAGE and Bax in brain tissues; type: in vivo; conditions: versus rotenone alone; one week and one month
Description: (§2) The animal models of Parkinson's disease were anaesthetized with ketamine (0.75 mg/kg body weight) and rompun (0.2 mg/kg body weight) prior to surgical procedures. For in vivo treatments, phosphate buffered saline (PBS) and sRAGE (10 ng/μL) were dissolved at a concentration of 1 mM in sterile water and kept at 4° C. until use. The head was fixed on a stereotaxic instrument before a midline incision of the scalp skin was made. The skull was pierced with a biological electric drill at the bregma (posteriorly, 0.3 mm; laterally, 2 mm) and the needle (gauge 26) on a 10-μL Hamilton syringe was lowered vertically until it reached the target area (depth, 2.5 mm). Three microliters of sRAGE were injected slowly at the rate of 1 μL per minute with an automatic microinjector. Thereafter, the syringe was removed slowly and surgical wounds were sutured with wound clips followed by topical treatment with antibiotics. For control, PBS was injected into the entorhinal cortex of normal mice.
Most mice were bred for one week and one month after injection of sRAGE. During the breeding, oral administration of rotenone still continued. Afterwards, all mice were re-anaesthetized in the same manner, and perfused transcardially with 100˜200 mL of heparinized saline at 18° C. followed by 400 mL of 4% paraformaldehyde-lysine periodate in 0.1 M sodium phosphate buffer (pH, 7.4). […]

[3] = test system: rotenone-mediated neuronal cell death; experiment: Rotenone mouse model, number of neuronal cells in brain tissues (cresyl violet staining); type: in vivo; conditions: rotenone mice; for level of cell death in mouse brain tissues: substance injected into brain, one week and one month, compared to PBS
Description: CBL57/bL6 mice, each weighing 20-25 g, were used as experimental animals. The mice were maintained on a 12-h light-dark cycle, allowed to have access to food and water ad libitum, and acclimated for at least 1 week prior to usage. All animal experiments were approved by the Institute Animal Care and Use Committee, and were conducted humanely.
as §2
Most mice were bred for one week and one month after injection of sRAGE. During the breeding, oral administration of rotenone still continued. Afterwards, all mice were re-anaesthetized in the same manner, and perfused transcardially with 100˜200 mL of heparinized saline at 18° C. followed by 400 mL of 4% paraformaldehyde-lysine periodate in 0.1 M sodium phosphate buffer (pH, 7.4). The brains were removed, placed in the same fixative for 4 hrs at 4° C., and then transferred into ice-cold 0.1 M phosphate-buffered saline (PBS) containing 20% sucrose. […]
The relative levels of neurons in mouse brain tissues were evaluated by cresyl violet staining after PBS, rotenone, or rotenone/sRAGE administration for one week and one month before microscopy.

[4] = test system: AGE-albumin in human microglial cells (HMO6); experiment: Synthesis and secretion of AGE-albumin in human microglial cells (co-immunoprecipitation, ELISA, immunoblot); type: cell-based; conditions: for amount / expression level of AGE-albumin (immunoblot): 0˜1000 μM H2O2, ascorbic acid irrespective of Aβ1-42 treatment
Description: (§1) For in vitro studies, the immortalized human microglial cell line HMO6 was used. HMO6 cells were grown in Dulbecco's modified Eagle's medium (DMEM, Gibco) containing a high glucose concentration, supplemented with 10% heat-inactivated fetal bovine serum (FBS, Gibco) and […] gentamycin (Sigma-Aldrich). These cells were maintained at 37° C. under 5% CO2. HMO6 cells were exposed to Aβ1-42 (Sigma-Aldrich) at concentrations from 0 to 400 nM. HMO6 cells were then harvested 6 hrs after Aβ1-42 treatment for further analysis.
Whole human microglial cell lysates prepared before and after Aβ 1-42 treatment were subjected to immunoblotting analysis. In this regard, whole cell lysates from human microglial cells before and after treatment with 0˜400 nM Aβ 1-42 were prepared with a RIPA (radioimmunoprecipitation assay) buffer containing 1 M Tris (pH 7.5), 5 M NaCl, 10% NP-40, 10% deoxycholate and a protease inhibitor cocktail (Calbiochem). All cell lysates (1 mg protein) were incubated overnight at 4° C. with 5 mg of anti-AGE (Abcam)-conjugated sepharose beads in […] of PBS. The sepharose beads were precipitated by centrifugation at 14,000 rpm for 5 min, and washed three times with 1 mL of washing buffer containing 50 mM Tris-Cl and 500 mM NaCl (pH 8.0). The IgG-bound antigen-antibody complex was resolved on a 4-12% polyacrylamide gel (Invitrogen), followed by immunoblot analysis with the respective antibodies (1:1000, Abcam).
After removal of already synthesized albumin by use of an anti-albumin antibody, intracellular and extracellular (secreted into culture media) levels of AGE-albumin were measured using ELISA. For this, human microglial cells were treated with 0-400 nM Aβ1-42, after which the culture media (0.1 mg protein) were harvested. Separately, the cells were lyzed to prepare cell lysates (0.5 mg protein). […] Following the addition of HRP-conjugated anti-mouse secondary antibody (1:1000, Vector Laboratories) to each well, color was developed with TMB (3,3′,5,5′-tetramethylbenzidine), and reaction was stopped with an equal volume of 2 M H2SO4. Absorbance at 450 nm was read on an ELISA plate reader (VERSA Max, Molecular Devices).
Aβ1-42 is known to accumulate over a long period of time by oxidative stress.

[5] = test system: AGE-albumin in human microglial cells; experiment: AGE-albumin in human microglial cell model of stroke (oxygen and glucose deprivation); type: cell-based; conditions: for amount / expression level of AGE-albumin in stroke model cells (immunoblot): 0˜1000 μM H2O2, ascorbic acid irrespective of hypoxia and glucose deprivation; for expression level of AGE-albumin in stroke model cells: 0, 50, 200, 500, 2000 ng/mL, hypoxic and glucose-deprived
Description: Human microglial cells were cultured at 37° C. in DMEM (Gibco, 10% FBS (Gibco), 0.1% gentamicin (Gibco), a high concentration of glucose) at 37° C. in a 5% CO2 incubator. Then, the microglial cells were exposed to glucose-free DMEM for 1 hr within a hypoxic (5% CO2 and 95% N2) chamber (Billups-Rothenberg, Del Mar, Calif.) to prepare a cell model of stroke.
Human microglial cell models of stroke were treated with HMGB1, which is known to secrete most abundantly upon stroke to excite microglial cells. Expression levels of AGE-albumin in the human microglial cell model of stroke were quantitated at various concentrations (0, 50, 200, 500, 2000 ng/mL) of HMGB1 using immunohistochemistry (IHC), ELISA, and immunoblotting.
A Human microglial cell model of stroke was exposed to various concentrations (0, 50, 200, 500, 2000 ng/mL) of the HMGB1 inhibitor glycyrrhizic acid, and quantitatively analyzed for AGE-albumin using ELISA and immunoblotting.

[6] = test system: AGE-albumin in human microglial cells and rat brain tissues; experiment: Distribution and density of AGE-albumin after Aβ1-42 treatment (immunostaining, confocal microscopy); type: cell-based
Description: as §1
Cells were grown on Lab-Tek II slide chambers (Nunc), rinsed with PBS, fixed in methanol for 15 min, and rinsed again with PBS. […] After washing the secondary antibodies with PBS three times at regular intervals of 10 min, coverslips were mounted onto glass slides using the Vectashield mounting medium (Vector Laboratories), and examined under a laser confocal fluorescence microscope (LSM-710, Carl Zeiss).
Immunohistochemistry was conducted on murine brain tissues from normal or Alzheimer's disease rats, and human brain tissues from normal adults and Alzheimer's disease individuals [S. M. Ahn et al., PLoS ONE 3, e2829 (2008)]. […] After washing the secondary antibodies three times with PBS, coverslips were mounted onto glass slides using the Vectashield mounting medium (Vector Laboratories), and observed under a laser confocal fluorescence microscope (LSM-710, Carl Zeiss). […]

[7] = test system: AGE-albumin in mouse blood monocytes; experiment: AGE-albumin in mouse blood monocytes (immunostaining); type: cell-based; conditions: compared to non-treated cells

NCCc1cc(O)c(O)cc1O [6-hydroxydopamine]
expression level of α-synuclein or TNF-α in human microglial cells [1]: increased

N[C@@H](C(=O)N[C@@H]1C(=O)N2C(C(=O)O)=C(Cl)CS[C@H]12)c1ccccc1 [C-20, Cefaclor]
AGE, albumin, Iba1, AGE-albumin, RAGE, and Bax expression / positive cells in mouse brain tissues [2]: reduced
level of cell death in mouse brain tissues [3]: significantly reduced level of cell death
number of neurons in the injected region versus the non-injected region ([3]; predominant recovery in the substantia nigra): higher number of neurons

CC(=O)OCC1=C(C(=O)O)N2C(=O)[C@@H](NC(=O)Cc3cccs3)[C@H]2SC1 [C-21, Cephalothin sodium]
AGE, albumin, Iba1, AGE-albumin, RAGE, and Bax expression / positive cells in mouse brain tissues [2]: reduced
level of cell death in mouse brain tissues [3]: significantly reduced level of cell death

O=C1O[C@H]([C@@H](O)CO)C(O)=C1O [ascorbic acid]
amount / expression level of AGE-albumin (immunoblot) [4]: drastically reduced
amount / expression level of AGE-albumin in stroke model cells (immunoblot) [5]: drastically reduced
expression level of AGE-albumin [1]: drastically reduced

C=C1[C@@H](C)[C@H]2[C@H](Cc3ccccc3)NC(=O)[C@]23[C@H](OC(C)=O)/C=C/[C@@](C)(O)C(=O)[C@@H](C)C/C=C/[C@H]3[C@@H]1O [cytochalasin D]
expression level of AGE-albumin [1]: drastically reduced

CC1(C)[C@@H](O[C@H]2O[C@H](C(=O)O)[C@@H](O)[C@H](O)[C@H]2O[C@@H]2O[C@H](C(=O)O)[C@@H](O)[C@H](O)[C@H]2O)CC[C@]2(C)[C@H]3C(=O)C=C4[C@@H]5C[C@@](C)(C(=O)O)CC[C@]5(C)CC[C@@]4(C)[C@]3(C)CC[C@@H]12 [glycyrrhizic acid]
expression level of AGE-albumin in stroke model cells [5]: significantly decreased with an increase in the concentration

OO [hydrogen peroxide]
amount / expression level of AGE-albumin (immunoblot) [4]: increased in a concentration-dependent manner
amount / expression level of AGE-albumin in stroke model cells (immunoblot) [5]: increased in a concentration-dependent manner
amounts of both α-synuclein and AGE-albumin ([1]; sequentially exposed to rotenone and H2O2 0˜1000 μM): increased in a concentration-dependent manner

C=C(C)[C@H]1Cc2c(ccc3c2O[C@@H]2COc4cc(OC)c(OC)cc4[C@@H]2C3=O)O1 [rotenone]
expression level of AGE-albumin in both cell lysate and cell culture medium ([1]; 1 nM rotenone): increased
expression level of α-synuclein or TNF-α in human microglial cells [1]: increased

Aβ1-42: amyloid beta 1-42 (Sigma-Aldrich), activator of microglial cells
expression level of AGE-albumin in human microglial cells (co-immunoprecipitation) ([4]; 0˜400 nM Aβ1-42): increased with an increase in the concentration
level of AGE-albumin in human microglial cell lysates (ELISA) ([4]; compared to non-treated lysates): significant increase
expression level of AGE-albumin (immunostaining) ([6]; human microglial cells and rat brain tissue (cerebral cortex) after exposure to Aβ1-42): remarkable elevation
densities of AGE-albumin ([6]; microglial cells and rat brain tissues after versus before Aβ1-42 treatment): remarkably higher
expression level of AGE-albumin in mouse blood monocytes [7]: higher expression level

B1: HMGB1: high motility group protein B1, excites microglial cells upon stroke (protein, UniProt P09429 1-215, looked up)
High mobility group protein B1: MGKGDPKKPRGKMSSYAFFVQTCREEHKKKHPDASVNFSEFSKKCSERWKTMSAKEKGKFEDMAKADKARYEREMKTYIPPKGETKKKFKDPNAPKRPPSAFFLFCSEYRPKIKGEHPGLSIGDVAKKLGEMWNNTAADDKQPYEKKAAKLKEKYEKDIAAYRAKGKPDAAKKGVVKAEKSKKKKEEEEDEEDEEDEEEEEDEEDEDEEEDDDDE
expression level of AGE-albumin in stroke model cells [5]: significantly increased with an increase in the concentration
